In paper PMC4559029 (Cancer Medicine, 2015):

Key:
[1] = published QT results for ondansetron; format: in vivo; details: 24 mg ondansetron, inferred by authors from published 32 mg data
Description: The majority of patients (18/26) received ondansetron 24 mg IV.

[2] = design: method as in earlier work; details: ondansetron 32 mg IV; cited from earlier work
hERG-related current = details: at 10 μg/mL; ref data on file, Celgene Corporation; cited from earlier work
patients = details: early clinical development, across several studies; cited from earlier work
clinical = details: human, plasma, intravenous
[3] = system: patients with advanced malignancy; assay: centrally read ECG analysis (QTcF, PR, QRS, heart rate) in patients with advanced malignancy
Description: All patients provided written informed consent.
PK/PD modeling is not reported as it was not possible to account for the possible effects of coadministered antiemetics and the absence of closely collected ECGs during times of PK sampling when rapid changes in the plasma concentrations occurred. For the central tendency and categorical analyses, the mean of the three replicates was used. All paper ECGs were analyzed by a core central ECG laboratory (Duke Clinical Research Institute [DCRI], Durham, NC) in a fully blinded fashion. A DCRI technician marked the fiducial points on each ECG tracing and, using a digital caliper, measured the QT, PR, RR, and QRS intervals. All ECGs were over read by a DCRI cardiologist for verification of the interval measurements.

| SMILES | QTc effect at 4 h [1] [ms] | increase in QTc at 4 h [2] | initial increase in QTc [2] | inhibition of hERG-related current (hERG-related current) [%] | patients with sudden death (patients) | AUC(0-inf) (clinical; 8 mg/m^2) [ng·h/mL] | Cmax (clinical; 8 mg/m^2) [ng/mL] | half-life (clinical; 8 mg/m^2) [h] | Cmax (clinical; 10 mg/m^2) [ng/mL] | half-life (clinical; 10 mg/m^2) [h] | AUC(0-inf) (clinical; 12 mg/m^2) [ng·h/mL] | Cmax (clinical; 12 mg/m^2) [ng/mL] | half-life (clinical; 12 mg/m^2) [h] | AUC(0-inf) (clinical; 14 mg/m^2) [ng·h/mL] | Cmax (clinical; 14 mg/m^2) [ng/mL] | half-life (clinical; 14 mg/m^2) [h] | upper 90% CI of maximal mean QTcF increase from preantiemetic baseline ([3]; 14 mg/m^2 4-h infusion, at 0.25 h postinitiation) [ms] | increase in heart rate ([3]; human, in vivo) | patients with absolute QTcF value >450 msec ([3]; human, in vivo) |
| --- | --- | --- | --- | --- | --- | --- | --- | --- | --- | --- | --- | --- | --- | --- | --- | --- | --- | --- | --- |
| Cc1nccn1CC1CCc2c(c3ccccc3n2C)C1=O (stereo not shown) [ondansetron] | < 5 | ≈ 6 msec | ≈ 20 msec | – | – | – | – | – | – | – | – | – | – | – | – | – | – | – | – |
| C/C=C1\NC(=O)[C@H]2CSSCC/C=C/[C@H](CC(=O)N[C@H](C(C)C)C(=O)N2)OC(=O)[C@H](C(C)C)NC1=O [romidepsin] | – | – | – | 37 | six | 1350 | 1110 | 4.82 | 1480 | 4.94 | 3010 | 2090 | 4.32 | 3070 | 780 | 3.7 | 14.5 | ≈ 20 bpm | No patient |
